For series [1] the following is noted: clinical data; cited from earlier work.
Another series concerns human monocytes. In words: RNAseq gene expression in purified human monocytes treated with ITF3756 and/or TNF-α. It counts as cell-based. The text has this: PBMCs used for the experiments were obtained from Buffy Coats of healthy donors (all samples tested negative for transmissible diseases as required for blood transfusion) separated over a Ficoll-Hypaque gradient (Biochrom). Monocytes were purified by negative selection from 100×10^6 PBMC using Pan Monocytes Isolation Kit (Milteny) following manufacturer's instructions. By Pan Monocyte Isolation kit untouched monocytes are isolated from human PBMCs and the simultaneous enrichment of classical (CD14^++CD16^−), non classical (CD14^+CD16^++) and intermediate (CD14^++CD16^+) monocytes is achieved. Non-monocytes, such as T cells, NK cells, B cells, dendritic cells, and basophils are indirectly magnetically labeled using a cocktail of biotin-conjugated antibodies and anti-Biotin MicroBeads. Briefly, 400 μL of Buffer (PBS 1×, 0.5% BSA and 2 mM EDTA), 100 μL of FcR Blocking Reagent and 100 μL of Biotin-Antibody Cocktail were added to PBMC, previously washed with PBS by centrifugation 300×g for 5 minutes, mixed and incubate for 5 minutes in the refrigerator (2-8° C.). After incubation, 300 μL of Buffer and 200 μL of anti-biotin microbeads were added to the cells, mixed and incubate further for 10 minutes in the refrigerator. After incubation cells were processed by subsequent magnetic cell separation. Cell suspension was applied onto the column and the flow-through containing unlabeled cells, representing the enriched monocytes, was collected. Purified monocytes were washed with Buffer by centrifugation 300×g for 5 minutes and counted in PBS. Purified monocytes (1,0×10^6/ml) were pre-treated for 2 h with ITF3756 1 μM or DMSO (0.005%) in 12-well plates in 1 ml final volume of complete medium (RPMI (Biochrom), FCS 10% and penicillin/streptomycin 1× (Sigma)). The cells were then stimulated or not with TNF-α (100 ng/mL, Peprotech) for 4h. After incubation with ITF3756 and TNF-α, the cells were collected, washed with PBS by centrifugation 300×g for 5 minutes and stored at −80° C. Samples were thawed on the bench for 2 minutes and total RNA was extracted with Trizol reagent (Thermo Fisher Scientific), following manufacturer's instructions. Briefly, Trizol reagent (0.75 ml Trizol per 5-10×10^6 cells) was added to the samples and the samples were incubated at room temperature (RT) for 5 minutes. After incubation, chloroform (150 μL per 0.75 mL Trizol) was added to the samples and after 3 minutes of incubation at RT, samples were centrifuged for 12000×g for 14 minutes at 4° C. After centrifugation, the mixture separates into 3 phases and RNA remains in the aqueous phase. The aqueous phase was removed for each sample and placed in new tubes, and isopropanol (0,375 ml per 0.75 ml of Trizol) was added in each tube. Samples was incubated for 30 minutes in the refrigerator (2-8° C.). After incubation, samples were centrifugated for 12000×g for 10 minutes at 4° C., the supernatant was removed and 75% ethanol (0.75 ml per 0.75 ml of Trizol) was added to samples. Samples were centrifuged for 7500×g for 5 minutes at 4° C., and the supernatant discarded. RNA was air dried on the bench for 5-10 minutes. RNA Samples was then resuspended in water (10-50 μL). The scheme of the experimental procedures carried out to generate the RNA sequence data is represented in FIG. 1. To determine the quantity and the integrity/purity of RNA samples, check controls were first performed by the Agilent Technologies 2100 Bioanalyzer using RNA 6000 LabChip® kit (Agilent #5067-1511). The Bioanalyzer is a bio-analytical device based on a combination of microfluidic chips, voltage-induced size separation in gel filled channels and laser-induced fluorescence (LIF) detection on a miniaturized scale. The RNA Integrity Number (RIN) software algorithm allows the classification of total RNA, based on a numbering system from 1 to 10, (with 1 being the most degraded and 10 being the most intact). […] Purified samples were processed using TruSeq RNA-Seq v2 Library Preparation Kit. […]

[2] abbreviates: single treatment (ITF3756 1 μM or TNF-α 100 ng/mL), RNAseq, vs control.
The mark [3] stands for this setting: single treatment vs vehicle-treated control (don), monocytes 4 h, padj<0.05.

Turning to `O=C(NO)c1ccc(CN(c2cnccn2)c2cnccn2)cc1` [KA2507], in series [1], the tolerability in patients result is on record as “very well tolerated”.

Regarding `O=C(CCCCCCNC(=O)c1cnc(N(c2ccccc2)c2ccccc2)nc1)NO` [Ricolinostat], the tolerability in patients entry in series [1] was “very well tolerated”.

TNF-α [reference compound]: in the series on human monocytes (setting [2]), the ADA gene expression result is given as “upregulation”, the IRF6 gene expression entry is listed as “no effect” and the LTBP4 gene expression result is recorded as “downregulated by two fold”. For the same compound, in the series with human monocytes (single treatment (ITF3756 1 μM or TNF-α 100 ng/mL), RNAseq, vs untreated control), the MMP9 gene expression entry is given as “No modulation”. Also, the PD-L1 gene expression entry in the series with human monocytes (single treatment (TNF-α 100 ng/mL 4 h), vs control) is “strongly upregulated”. For the same compound, in the series on human monocytes (setting [3]), the “Genes Down regulated (number of genes modulated)” value is 1688 and the “Genes Up regulated (number of genes modulated)” value is 1563.
